# Reference: article PMC5833756, “A novel ruthenium complex with xanthoxylin induces S-phase arrest and causes ERK1/2-mediated apoptosis in HepG2 cells through a p53-independent pathway” (Cell Death & Disease, 2018)
# Like-named read-outs stand apart in the source and are kept apart here.
# How the values were obtained:
# [1] = test system: HepG2 cells; assay: Trypan blue exclusion assay; type: cell-based, human
# [2] = test system: HL-60; type: cell-based, human; settings: HL-60 (human promyelocytic leukemia), 72 h
# [3] = test system: HCT116; type: cell-based, human; settings: HCT116 (human colon carcinoma), 72 h
# [4] = test system: SCC-4; type: cell-based, human; settings: SCC-4 (human oral squamous cell carcinoma), 72 h
# [5] = test system: multicellular spheroids formed from HepG2 cells; assay: 3D multicellular spheroid culture, alamar blue; type: cell-based, human; settings: HepG2 3D spheroids, 72 h
# Procedure: HepG2 cells were cultivated in 3D multicellular spheroids. Briefly, 100 μL of cell solution (0.5 × 10^6 cells/mL) was added to a 96-well plate with a cell-repellent surface (Greiner Bio-One, Kremsmünster, Austria) and cultured in complete medium plus 3% Matrigel (BD Biosciences, San Jose, CA, USA). Spheroids with stable structures formed after three days. Then, the spheroids were exposed to a range of drug concentrations for 72 h. The negative control received the vehicle that was used for diluting the complex tested. In the end of the experiment, morphological changes were examined by light microscopy (Olympus BX41, Tokyo, Japan) using Image-Pro software (Media Cybernetics, Inc. Silver Spring, USA), and cell viability was quantified by alamar blue assay as described above.
# [6] = for Initial body weight: before treatment; for Final body weight / Survival / Differential leukocytes: Eosinophils / Differential leukocytes: Lymphocytes / Differential leukocytes: Monocytes / Differential leukocytes: Neutrophils / Erythrocytes / Total leukocytes: i.p. 21 days; for Differential leukocytes: Eosinophils / Differential leukocytes: Lymphocytes / Differential leukocytes: Monocytes / Differential leukocytes: Neutrophils / Erythrocytes / Total leukocytes: peripheral blood
# Procedure: HepG2 cells (1 × 10^7 cells per 500 µL) were implanted subcutaneously into the left front armpit of the mice. […] The treatments were initiated one day after the tumor cell injection. The animals were treated intraperitoneally (200 µL per animal) once daily for 21 consecutive days. On the 22nd day, the animals were anesthetized, and peripheral blood samples were collected from the brachial artery. Animals were euthanized by anesthetic overdose, and tumors were excised and weighed.
# To assess the toxicological effects, mice were weighed at the beginning and at the end of the experiment. […] Hematological analysis was performed using light microscopy. Livers, kidneys, lungs and hearts were removed, weighed and examined for any signs of gross lesions, color changes and/or hemorrhages. After gross macroscopic examination, the tumors, livers, kidneys, lungs and hearts were fixed in 4% formalin buffer and embedded in paraffin. Tissue sections were stained with hematoxylin and eosin chromogens, and a pathologist performed the analysis under a light microscope.
# [7] = test system: AGP-01; settings: AGP-01 (human ascitic gastric adenocarcinoma), 72 h
# [8] = test system: HSC-3; type: cell-based, human; settings: HSC-3 (human oral squamous cell carcinoma), 72 h
# [9] = test system: PBMC; type: cell-based; settings: PBMC (human peripheral blood mononuclear cells, non-cancer), 72 h
# [10] = test system: ACP-02; type: cell-based, human
# [11] = test system: HaCAT; type: cell-based; settings: HaCAT (human keratinocyte, non-cancer), 72 h
# [12] = test system: calf thymus DNA; assay: DNA intercalation assay (ethidium bromide displacement); type: binding; settings: 20 μM, cell-free, 15 min
# Procedure: DNA intercalation was assessed by examining the ability of the complex to displace ethidium bromide from ctDNA (Sigma-Aldrich)[36]. […] After a 15 min of incubation at room temperature, fluorescence was measured using the excitation and emission wavelengths of 320 nm and 600 nm, respectively, using the Spectramax Microplate Reader (Molecular Devices).
# [13] = test system: B16-F10; type: cell-based, mouse; settings: B16-F10 (murine melanoma), 72 h
# [14] = test system: HepG2 cells; type: cell-based, human
# Procedure: Briefly, the cells were harvested in a permeabilization solution containing 0.1% Triton X-100, 2 µg/mL PI, 0.1% sodium citrate and 100 µg/mL RNAse (all from Sigma-Aldrich) and incubated in the dark for 15 min at room temperature. Finally, cell fluorescence was measured by flow cytometry with a BD LSRFortessa cytometer using BD FACSDiva Software (BD Biosciences) and FlowJo Software 10 (FlowJo Lcc; Ashland, OR, USA). Ten thousand events were evaluated per experiment, and cellular debris was omitted from the analysis.
# [15] = test system: MCF-7; type: cell-based, human; settings: MCF-7 (human breast adenocarcinoma), 72 h
# [16] = test system: K-562; type: cell-based, human; settings: K-562 (human chronic myelogenous leukemia), 72 h
# [17] = test system: SCC-15; type: cell-based, human; settings: SCC-15 (human oral squamous cell carcinoma), 72 h
# [18] = test system: SCC-9; type: cell-based, human; settings: SCC-9 (human oral squamous cell carcinoma), 72 h
# [19] = DOX 0.3 mg/kg, 5-FU 10 mg/kg, RCX 2.5 mg/kg
# [20] = HepG2, 12 h, DOX 2 µM, OXA 10 µM, RCX 12 µM
# [21] = HepG2, 24 h, DOX 2 µM, OXA 10 µM, RCX 12 µM
# [22] = HepG2, 48 h, DOX 2 µM, OXA 10 µM, RCX 12 µM
# [23] = HepG2, 72 h, DOX 2 µM, OXA 10 µM, RCX 12 µM
# 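Throughout, for Final body weight: mice bearing subcutaneous HepG2 xenografts, given intraperitoneal doses once daily for 21 days, weighed at start and end, blood leukocytes counted by light microscopy on day 22.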
# 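Throughout, for Initial body weight: mice bearing subcutaneous HepG2 xenografts, given intraperitoneal doses once daily for 21 days, weighed at start and end, blood leukocytes counted by light microscopy on day 22.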
# 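Throughout, for liver histopathological characteristics: mice bearing subcutaneous HepG2 xenografts, given intraperitoneal doses once daily for 21 days, weighed at start and end, blood leukocytes counted by light microscopy on day 22.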
# 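Throughout, for lung histopathological characteristics: mice bearing subcutaneous HepG2 xenografts, given intraperitoneal doses once daily for 21 days, weighed at start and end, blood leukocytes counted by light microscopy on day 22.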
structure (smiles),measurement,setting,value
"COc1cc([O-])c(C(C)=O)c(OC)c1.F[P-](F)(F)(F)(F)F.[Ru+2].c1cnc2c(c1)ccc1cccnc12.c1cnc2c(c1)ccc1cccnc12 [RCX, cis-[Ru(phen)2(xant)](PF6)]",reduction of the number of viable cells,"[1]; HepG2, 12 μM, 24 h",57.2%
same,reduction of the number of viable cells,"[1]; HepG2, 12 μM, 48 h",74.6%
same,reduction of the number of viable cells,"[1]; HepG2, 12 μM, 72 h",73.8%
same,reduction of the number of viable cells,"[1]; HepG2, 24 μM, 24 h",62.2%
same,reduction of the number of viable cells,"[1]; HepG2, 24 μM, 48 h",73.9%
same,reduction of the number of viable cells,"[1]; HepG2, 24 μM, 72 h",82.1%
same,change in the number of viable cells,"[1]; HepG2, 12 and 24 μM, 12 h",No significant decrease in the number of viable cells
same,IC50,[2],6.6 µM
same,IC50,[3],1.6 µM
same,IC50,[4],5.3 µM
same,IC50,[5],8 µM
same,lung histopathological characteristics,"[6]; atelectasis, hemorrhage, inflammation, congestion, doxorubicin 0.3 mg/kg, RCX both doses, 21 days",more pronounced in the doxorubicin and RCX (both doses) groups than in the other groups
same,Initial body weight,"[6]; DOX 0.3 mg/kg, 5-FU 10 mg/kg, RCX 2.5 mg/kg groups",22.2 ± 0.5 g
same,Initial body weight,[6]; RCX 5 mg/kg group,21.1 ± 0.4 g
same,liver histopathological characteristics,"[6]; hydropic degeneration, dilatation, necrosis, inflammation, RCX 2.5 and 5 mg/kg, 21 days",more pronounced in the RCX groups than in the other groups
same,Final body weight,[6]; [19],20.6 ± 0.4 g
same,Survival,[6]; [19],14/14
same,Final body weight,[6]; RCX 5 mg/kg,17.0 ± 0.4 g
same,Survival,[6]; RCX 5 mg/kg,7/14
same,Differential leukocytes: Eosinophils,[6]; [19],1.0%
same,Differential leukocytes: Lymphocytes,[6]; [19],49.3%
same,Differential leukocytes: Monocytes,[6]; [19],1.0%
same,Differential leukocytes: Neutrophils,[6]; [19],48.3%
same,Erythrocytes,[6]; [19],9.0 ± 0.6 10^6cells/μL
same,Total leukocytes,[6]; [19],3.1 ± 0.5 10^3cells/μL
same,Differential leukocytes: Eosinophils,[6]; RCX 5 mg/kg,1.0%
same,Differential leukocytes: Lymphocytes,[6]; RCX 5 mg/kg,49.0%
same,Differential leukocytes: Monocytes,[6]; RCX 5 mg/kg,1.0%
same,Differential leukocytes: Neutrophils,[6]; RCX 5 mg/kg,49.0%
same,Erythrocytes,[6]; RCX 5 mg/kg,8.3 ± 0.3 10^6cells/μL
same,Total leukocytes,[6]; RCX 5 mg/kg,2.6 ± 0.2 10^3cells/μL
same,IC50,[7],5.3 µM
same,IC50,[8],7.7 µM
same,IC50,[9],4.6 µM
same,selectivity index (SI),[10],0.3
same,IC50,"[10]; ACP-02 (human gastric adenocarcinoma), 72 h",18.3 µM
same,IC50,[11],6.1 µM
same,displacement of ethidium bromide from ctDNA (fluorescence),[12],decreased the ethidium bromide fluorescence
same,IC50,[13],12.4 µM
same,DNA content G0/G1,[14]; [20],66.4 ± 4.0%
same,DNA content G2/M,[14]; [20],13.3 ± 1.1%
same,DNA content S,[14]; [20],18.0 ± 7.4%
same,DNA content Sub-G0/G1,[14]; [20],9.6 ± 1.1 %
same,DNA content G0/G1,"[14]; HepG2, 12 h, RCX 24 µM",68.9 ± 2.2%
same,DNA content G2/M,"[14]; HepG2, 12 h, RCX 24 µM",13.9 ± 1.6%
same,DNA content S,"[14]; HepG2, 12 h, RCX 24 µM",8.6 ± 4.5%
same,DNA content Sub-G0/G1,"[14]; HepG2, 12 h, RCX 24 µM",13.0 ± 2.5 %
same,DNA content G0/G1,[14]; [21],38.2 ± 1.2 %
same,DNA content G2/M,[14]; [21],17.6 ± 0.9%
same,DNA content S,[14]; [21],22.4 ± 0.7 %
same,DNA content Sub-G0/G1,[14]; [21],15.3 ± 0.6 %
same,DNA content G0/G1,"[14]; HepG2, 24 h, RCX 24 µM",29.9 ± 2.7 %
same,DNA content G2/M,"[14]; HepG2, 24 h, RCX 24 µM",13.0 ± 1.3%
same,DNA content S,"[14]; HepG2, 24 h, RCX 24 µM",13.0 ± 1.6%
same,DNA content Sub-G0/G1,"[14]; HepG2, 24 h, RCX 24 µM",34.7 ± 1.4 %
same,DNA content G0/G1,[14]; [22],23.3 ± 2.0 %
same,DNA content G2/M,[14]; [22],9.0 ± 0.8 %
same,DNA content S,[14]; [22],11.5 ± 2.7%
same,DNA content Sub-G0/G1,[14]; [22],44.1 ± 6.3 %
same,DNA content G0/G1,"[14]; HepG2, 48 h, RCX 24 µM",18.9 ± 3.0 %
same,DNA content G2/M,"[14]; HepG2, 48 h, RCX 24 µM",6.5 ± 0.7 %
same,DNA content S,"[14]; HepG2, 48 h, RCX 24 µM",10.3 ± 1.3%
same,DNA content Sub-G0/G1,"[14]; HepG2, 48 h, RCX 24 µM",62.6 ± 3.4 %
same,DNA content G0/G1,[14]; [23],23.6 ± 1.9 %
same,DNA content G2/M,[14]; [23],11.1 ± 1.8%
same,DNA content S,[14]; [23],13.2 ± 0.8%
same,DNA content Sub-G0/G1,[14]; [23],42.6 ± 6.8 %
same,DNA content G0/G1,"[14]; HepG2, 72 h, RCX 24 µM",19.7 ± 3.3 %
same,DNA content G2/M,"[14]; HepG2, 72 h, RCX 24 µM",6.7 ± 0.7%
same,DNA content S,"[14]; HepG2, 72 h, RCX 24 µM",4.9 ± 1.1 %
same,DNA content Sub-G0/G1,"[14]; HepG2, 72 h, RCX 24 µM",68.2 ± 3.7 %
same,IC50,[15],22.4 µM
same,IC50,[16],6.1 µM
same,IC50,[17],6.8 µM
same,IC50,[18],3.4 µM
